From patent US9969687B2, “Compounds useful as CCR9 modulators” (Norgine B.V., priority 2013, dated 2018) come the findings set out here.

For assay [1], the target named is T1, CCR9 (Homo sapiens (Human), UniProt P51686). The experiment in a line: FLIPR calcium flux assay using MOLT4 cells, TECK stimulation. In kind it is cell-based. Particulars: MOLT4 cells (human T-cell line). In a few lines: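 MOLT4 cells in HBSS/20 mM HEPES with probenecid, Fluo-4 NW loaded, preincubated with compound (10 μM-0.1 nM final, half-log) for 60 min before TECK stimulation. Calcium rise read on FLIPR; IC50 from four-parameter fit, converted to Ki using TECK concentration and same-day TECK EC50.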

Assay [2] addresses T1, CCR9. The experiment in a line: FLIPR calcium flux assay using hCCR9 over expressed cells (Chem1-hCCR9), TECK stimulation. In kind it is cell-based. Particulars: Chem1-hCCR9 overexpressing cells. In a few lines:
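Chem1 cells overexpressing hCCR9, loaded with Fluo-4 NW dye (HBSS/20 mM HEPES, probenecid), preincubated 60 min with compound (10 μM-0.1 nM final), then stimulated with TECK at EC80. Calcium rise read on FLIPR; IC50 from four-parameter fit, Ki derived from IC50 using TECK concentration and same-day TECK EC50.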
(A change in cytosolic calcium serves as a functional read-out for many receptors and channels.)

T1 sequence (P51686 whole entry): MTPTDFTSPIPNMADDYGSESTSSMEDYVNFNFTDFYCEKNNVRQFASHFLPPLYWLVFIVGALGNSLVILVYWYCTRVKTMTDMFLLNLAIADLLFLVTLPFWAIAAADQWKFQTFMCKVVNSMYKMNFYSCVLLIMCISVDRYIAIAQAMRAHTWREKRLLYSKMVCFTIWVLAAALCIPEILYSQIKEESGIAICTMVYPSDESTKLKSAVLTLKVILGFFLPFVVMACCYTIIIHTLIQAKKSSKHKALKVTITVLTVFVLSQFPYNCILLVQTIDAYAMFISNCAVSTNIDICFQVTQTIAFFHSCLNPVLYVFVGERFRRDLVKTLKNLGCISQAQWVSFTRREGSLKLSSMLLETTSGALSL

In the case of `COc1cncc(N2C(=O)c3c(Cl)ccc(NS(=O)(=O)c4ccc(C(C)(C)C)cc4)c3C2=O)c1C` [Compound 242], the Ki (as a rule, the equilibrium dissociation constant of an inhibitor or competing ligand from its target) on CCR9 [1] was 18 nM; on CCR9 [2], 56 nM.
For `COc1ccc(N2C(=O)c3c(Cl)ccc(NS(=O)(=O)c4ccc(C(C)(C)C)cc4)c3C2=O)c(C)[n+]1[O-]` [Compound 243] the same measures were 34 nM and 115 nM.
The matching figures for `Cc1cnccc1N1C(=O)c2c(Cl)ccc(NS(=O)(=O)c3ccc(C(C)(C)C)cc3)c2C1=O` [Compound 244]: 6 nM and 3 nM.
For `COc1c[n+]([O-])cc(N2C(=O)c3c(Cl)ccc(NS(=O)(=O)c4ccc(C(C)(C)C)cc4)c3C2=O)c1C` [Compound 245] the same measures were 47 nM and 54 nM.
For the molecule `COc1ncccc1CN1C(=O)c2c(Cl)ccc(NS(=O)(=O)c3ccc(C(C)(C)C)cc3)c2C1=O` [Compound 247], the Ki at CCR9 [1] stood at 78 nM; at CCR9 [2], 51 nM.
`CC(C)(C)c1ccc(S(=O)(=O)Nc2ccc(Cl)c3c2C(=O)N(c2ccncn2)C3=O)cc1` [Compound 249]: the Ki came out at 33 nM at CCR9 [1] and 60 nM at CCR9 [2].
Consider `CC(C)(C)c1ccc(S(=O)(=O)Nc2ccc(Cl)c3c2C(=O)N(c2ncccn2)C3=O)cc1` [Compound 250], for which the Ki on CCR9 [1] amounted to 23 nM; at CCR9 [2], 56 nM.
For `Cc1ccc(CN2C(=O)c3c(Cl)ccc(NS(=O)(=O)c4ccc(C(C)(C)C)cc4)c3C2=O)nc1` [Compound 251] the same measures were 51 nM and 148 nM.
The matching figures for `Cc1cccc(CN2C(=O)c3c(Cl)ccc(NS(=O)(=O)c4ccc(C(C)(C)C)cc4)c3C2=O)n1` [Compound 254]: 58 nM and 68 nM.
For `Cn1cnc(N2C(=O)c3c(Cl)ccc(NS(=O)(=O)c4ccc(C(C)(C)C)cc4)c3C2=O)n1` [Compound 255] the same measures were 17 nM and 72 nM.
Consider `Cc1cnc(C#N)c(N2C(=O)c3c(Cl)ccc(NS(=O)(=O)c4ccc(C(C)(C)C)cc4)c3C2=O)c1` [Compound 256], for which the Ki at CCR9 [1] and at CCR9 [2] was 18 nM throughout.
On to `CCc1c(OC)cncc1N1C(=O)c2c(Cl)ccc(NS(=O)(=O)c3ccc(C(C)(C)C)cc3)c2C1=O` [Compound 257], for which the Ki on CCR9 [1] worked out at 25 nM; at CCR9 [2] it was 21 nM.
Turning to `Cc1cncc(CN2C(=O)c3c(Cl)ccc(NS(=O)(=O)c4ccc(C(C)(C)C)cc4)c3C2=O)c1` [Compound 258], the values for the Ki at CCR9 [1] and at CCR9 [2] were 23 nM and 67 nM, respectively.
For `Cc1ccc(CN2C(=O)c3c(Cl)ccc(NS(=O)(=O)c4ccc(C(C)(C)C)cc4)c3C2=O)[n+]([O-])c1` [Compound 259] the same measures were 13 nM and 45 nM.
`COc1ccc(N2C(=O)c3c(Cl)ccc(NS(=O)(=O)c4ccc(C(C)(C)C)cc4)c3C2=O)nc1C` [Compound 260]: the results for the Ki at CCR9 [1] and at CCR9 [2] were 16 nM and 22 nM, respectively.
The matching figures for `COc1ncc(C)cc1N1C(=O)c2c(Cl)ccc(NS(=O)(=O)c3ccc(C(C)(C)C)cc3)c2C1=O` [Compound 261]: 16 nM and 11 nM.
The matching figures for `Cc1cc(CN2C(=O)c3c(Cl)ccc(NS(=O)(=O)c4ccc(C(C)(C)C)cc4)c3C2=O)c[n+]([O-])c1` [Compound 262]: 46 nM and 119 nM.
The matching figures for `Cc1cnc(C)c(N2C(=O)c3c(Cl)ccc(NS(=O)(=O)c4ccc(C(C)(C)C)cc4)c3C2=O)c1` [Compound 263]: 11 nM and 25 nM.
Take `CC(C)(C)c1ccc(S(=O)(=O)Nc2ccc(Cl)c3c2C(=O)N(c2ccncc2)C3=O)cc1` [Compound 264]: the results for the inhibitory constant (Ki) at CCR9 [1] and on CCR9 [2] were 11 nM and 18 nM, respectively.
For `CCc1c(OC)c[n+]([O-])cc1N1C(=O)c2c(Cl)ccc(NS(=O)(=O)c3ccc(C(C)(C)C)cc3)c2C1=O` [Compound 266] the same measures were 10 nM and 25 nM.
The matching figures for `Cc1cc(N2C(=O)c3c(Cl)ccc(NS(=O)(=O)c4ccc(C(C)(C)C)cc4)c3C2=O)c(C)[n+]([O-])c1` [Compound 267]: 27 nM and 59 nM.
In the case of `Cc1nccnc1N1C(=O)c2c(Cl)ccc(NS(=O)(=O)c3ccc(C(C)(C)C)cc3)c2C1=O` [Compound 270], the Ki on CCR9 [1] stood at 23 nM; at CCR9 [2], 61 nM.
The matching figures for `CCOc1ccncc1N1C(=O)c2c(Cl)ccc(NS(=O)(=O)c3ccc(C(C)(C)C)cc3)c2C1=O` [Compound 271]: 9 nM and 35 nM.
For `Cc1c[n+]([O-])ccc1N1C(=O)c2c(Cl)ccc(NS(=O)(=O)c3ccc(C(C)(C)C)cc3)c2C1=O` [Compound 272] the same measures were 9 nM and 29 nM.
The matching figures for `CC(C)(C)c1ccc(S(=O)(=O)Nc2ccc(Cl)c3c2C(=O)N(c2cccc[n+]2[O-])C3=O)cc1` [Compound 274]: 34 nM and 50 nM.
Regarding `Cc1cnc(N2C(=O)c3c(Cl)ccc(NS(=O)(=O)c4ccc(C(C)(C)C)cc4)c3C2=O)cn1` [Compound 275], the figures for the Ki at CCR9 [1] and at CCR9 [2] were 32 nM and 54 nM, respectively.
For `CC(C)(C)c1ccc(S(=O)(=O)Nc2ccc(Cl)c3c2C(=O)N(c2cc(F)ccn2)C3=O)cc1` [Compound 276] the same measures were 22 nM and 91 nM.
For `COc1cncc(N2C(=O)c3c(C#N)ccc(NS(=O)(=O)c4ccc(C(C)(C)C)cc4)c3C2=O)c1` [Compound 278] the same measures were 10 nM and 17 nM.
In the case of `CC(C)(C)c1ccc(S(=O)(=O)Nc2ccc(C#N)c3c2C(=O)N(Cc2ccccn2)C3=O)cc1` [Compound 279], the Ki stood at 18 nM on CCR9 [1] and 17 nM on CCR9 [2].
For the molecule `CC(C)(C)c1ccc(S(=O)(=O)Nc2ccc(Cl)c3c2C(=O)N(c2ccc[nH]c2=O)C3=O)cc1` [Compound 281, 4-(tert-butyl)-N-(7-chloro-1,3-dioxo-2-(2-oxo-1,2-dihydropyridin-3-yl)isoindolin-4-yl)benzenesulfonamide], the figures for the Ki on CCR9 [1] and on CCR9 [2] were 5 nM and 4 nM, respectively.
The matching figures for `Cn1cc(N2C(=O)c3c(Cl)ccc(NS(=O)(=O)c4ccc(C(C)(C)C)cc4)c3C2=O)ccc1=O` [Compound 282]: 9 nM and 23 nM.
For `Cc1cc(C)c(CN2C(=O)c3c(Cl)ccc(NS(=O)(=O)c4ccc(C(C)(C)C)cc4)c3C2=O)c(=O)[nH]1` [Compound 283] the same measures were 15 nM and 20 nM.
The matching figures for `CC(C)(C)c1ccc(S(=O)(=O)Nc2ccc(Cl)c3c2C(=O)N(Cc2ccc[nH]c2=O)C3=O)cc1` [Compound 284]: 7 nM and 12 nM.
Turning to `Cc1cc(N2C(=O)c3c(Cl)ccc(NS(=O)(=O)c4ccc(C(C)(C)C)cc4)c3C2=O)cn(C)c1=O` [Compound 285], the results for the Ki at CCR9 [1] and at CCR9 [2] were 16 nM and 78 nM, respectively.
The matching figures for `CCOC(=O)c1ncccc1N1C(=O)c2c(Cl)ccc(NS(=O)(=O)c3ccc(C(C)(C)C)cc3)c2C1=O` [Compound 286, ethyl 3-(4-((4-(tert-butyl)phenyl)sulfonamido)-7-chloro-1,3-dioxoisoindolin-2-yl)picolinate]: 10 nM and 14 nM.
As for `CC(C)(C)c1ccc(S(=O)(=O)Nc2ccc(Cl)c3c2C(=O)N(c2cccnc2C(=O)O)C3=O)cc1` [Compound 287, 3-(4-((4-(tert-butyl)phenyl)sulfonamido)-7-chloro-1,3-dioxoisoindolin-2-yl)picolinic acid], the Ki at CCR9 [1] was determined as 22 nM; at CCR9 [2] it was 10 nM.
As for `CC(C)(C)c1ccc(S(=O)(=O)Nc2ccc(Cl)c3c2C(=O)N(c2ccsc2C(=O)O)C3=O)cc1` [Compound 288], the Ki on CCR9 [1] stood at 3 nM; on CCR9 [2], 23 nM.
Turning to `CCOC(=O)c1c(N2C(=O)c3c(Cl)ccc(NS(=O)(=O)c4ccc(C(C)(C)C)cc4)c3C2=O)ccc[n+]1[O-]` [Compound 290], the inhibitory constant (Ki) on CCR9 [1] was 7 nM; at CCR9 [2], 14 nM.
The matching figures for `COC(=O)c1cc(N2C(=O)c3c(Cl)ccc(NS(=O)(=O)c4ccc(C(C)(C)C)cc4)c3C2=O)n(C)n1` [Compound 291]: 5 nM and 15 nM.
For `COC(=O)c1cc(N2C(=O)c3c(Cl)ccc(NS(=O)(=O)c4ccc(C(C)(C)C)cc4)c3C2=O)nn1C` [Compound 292] the same measures were 11 nM and 16 nM.
